Measured values: patent US20240351999A1, “PYRROLYLACYLPIPERIDYLAMINE COMPOUND AND USE THEREOF” (INSTITUTE OF MATERIA MEDICA ,CHINESE ACADEMY OF MEDICAL …, priority 2021, published 2024)
Values after ≈ are worked out from the molar mass of the structure shown.

Assays:
[1] = test system: Staphylococcus aureus ATCC 29213; assay: In vitro antibacterial activity (MIC), microbroth dilution; type: cell-based; details: ATCC29213, 37° C., 18 h
[2] = test system: Staphylococcus aureus ATCC 25923; assay: as above; type: cell-based; details: ATCC25923, 37° C., 18 h
[3] = test system: Staphylococcus aureus ATCC 43300 (MRSA); assay: as above; type: cell-based; details: 37° C., 18 h, read-out: MIC Staphylococcus aureus ATCC 43300 (MRSA)
[4] = test system: Staphylococcus aureus MRSA 15-1; assay: as above; type: cell-based; details: 37° C., 18 h
[5] = test system: Staphylococcus epidermidis ATCC 12228; assay: as above; type: cell-based; details: ATCC12228, 37° C., 18 h
[6] = test system: Staphylococcus epidermidis MRSE 15-1; assay: as above; type: cell-based; details: 37° C., 18 h
[7] = test system: Enterococcus faecalis ATCC 51575; assay: as above; type: cell-based; details: ATCC51575, 37° C., 18 h
[8] = test system: Enterococcus faecium EFM 19-1; assay: as above; type: cell-based; details: EFM191, 37° C., 18 h
[9] = test system: Escherichia coli ATCC 25922; assay: as above; type: cell-based; details: ATCC25922, 37° C., 18 h, read-out: MIC Escherichia coli ATCC 25922
[10] = test system: Escherichia coli ATCC 35218; assay: as above; type: cell-based; details: ATCC35218, 37° C., 18 h, read-out: MIC Escherichia coli ATCC 35218
[11] = test system: Escherichia coli ECO+ 15-1; assay: as above; type: cell-based; details: 37° C., 18 h, read-out: MIC Escherichia coli ECO+ 15-1
[12] = test system: Acinetobacter baumannii ATCC 19606; assay: as above; type: cell-based; details: ATCC19606, 37° C., 18 h, read-out: MIC Acinetobacter baumannii ATCC 19606
[13] = test system: Pseudomonas aeruginosa ATCC 27853; assay: as above; type: cell-based; details: ATCC27853, 37° C., 18 h, read-out: MIC Pseudomonas aeruginosa ATCC 27853
[14] = test system: Klebsiella pneumoniae KPN-15-1; assay: as above; type: cell-based; details: KPN151, 37° C., 18 h, read-out: MIC Klebsiella pneumoniae KPN-15-1
[15] = test system: Clostridium difficile ATCC 9689; assay: as above; type: cell-based; details: Clostridioides difficile, ATCC9689; read-out: MIC Clostridium difficile ATCC 9689
[16] = test system: Mycobacterium tuberculosis; assay: Activity against Mycobacterium tuberculosis (MIC); type: cell-based; details: read-out: Inhibitory activity (MIC) against Mycobacterium tuberculosis
[17] = test system: Staphylococcus aureus ATCC 29213; assay: In vitro induced drug resistance, 20 generations at sub-MIC; type: cell-based; details: ATCC29213, read-out: MIC value after passage for 20 generations
Experimental: Test method: MIC values of a compound 1 and a control compound DS2969 against Staphylococcus aureus ATCC 29213 were determined by using a microbroth dilution method recommended by operating procedures for antibacterial susceptibility testing of the Clinical and Laboratory Standards Institute (CLSI).
After testing the MIC values, sub-MIC concentrations (1/2 MIC) of bacteria were diluted, and the concentration of the obtained bacterial solution was adjusted to 105 CFU/mL for a next round of MIC value testing. After 24 hours of incubation, bacterial suspensions were prepared by using bacterial suspensions at sub-MIC concentrations of drugs (1/2 MIC), and another MIC testing was performed. This process was repeated for 20 times, and the MIC value for each test was recorded.
The MIC values of the compound 1 and DS2969 inducing Staphylococcus aureus ATCC29213 for 20 generations were recorded, with the number of generations of bacteria induced as an abscissa and the MIC values as an ordinate (as shown in FIG. 1).

[18] = test system: Staphylococcus aureus (MRSA, ATCC 43300); assay: Antibacterial activity in mice, sepsis model; type: in vivo, ICR mice; details: Staphylococcus aureus, po; MRSA ATCC 43300 sepsis model, intragastric administration at lower dose
Experimental: Experimental animals: Beijing Vital River Laboratory Animal Technology Co., Ltd., ICR mice, with a uniform body weight of 20-22 g, and half male and half female.
Model: Sepsis model infected by Staphylococcus aureus (MRSA, ATCC 43300)
Modeling method: mice were infected with […] (diluted with a 5% sterile yeast solution) Staphylococcus aureus (MRSA, ATCC 43300) such that sepsis models of mice were formed (0.5 mL of a bacterial solution was injected intraperitoneally into each mouse).
Experimental scheme: a compound 1 and a positive drug were first dissolved in DMSO, and then diluted with other solvents, wherein a solvent ratio was saline:Tween 80:DMSO=9:0.5:0.5.

[19] = test system: Staphylococcus aureus ATCC 29213; details: prior art value; cited from earlier work
[20] = test system: Escherichia coli ATCC25922; details: prior art value; cited from earlier work

Structure (SMILES): CCc1[nH]c(C(=O)N[C@@H]2CCN(c3nnc(C(C)(C)O)s3)C[C@@H]2OC)nc1Cl [DS2969, reference compound]
- MIC [1]: 0.5 µg/mL (≈ 1.17 µM)
- MIC [2]: 0.5 µg/mL (≈ 1.17 µM)
- MIC [3]: 0.5 µg/mL (≈ 1.17 µM)
- MIC [4]: 0.5 µg/mL (≈ 1.17 µM)
- MIC [5]: 0.5 µg/mL (≈ 1.17 µM)
- MIC [6]: 0.5 µg/mL (≈ 1.17 µM)
- MIC [7]: 0.5 µg/mL (≈ 1.17 µM)
- MIC [8]: 0.5 µg/mL (≈ 1.17 µM)
- MIC [9]: 32 µg/mL (≈ 74.6 µM)
- MIC [10]: 32 µg/mL (≈ 74.6 µM)
- MIC [11]: > 64 µg/mL
- MIC [12]: > 64 µg/mL
- MIC [13]: > 64 µg/mL
- MIC [14]: > 64 µg/mL
- MIC [15]: 0.5 µg/mL (≈ 1.17 µM)
- MIC [16]: 0.654 µg/mL (≈ 1.52 µM)
- MIC [17]: 16 µg/mL (≈ 37.3 µM)
- ED50 [18]: > 10 mg/kg
- MIC Staphylococcus aureus ATCC 29213 (background) [19]: 0.2 µg/mL (≈ 0.466 µM)
- MIC Escherichia coli ATCC25922 (background) [20]: 32 µg/mL (≈ 74.6 µM)
